Data taken from patent publication US20120270832A1, “KETONE ACCUMULATION INHIBITOR” (MITSUI SUGAR CO., LTD., priority 2008, published 2012).
“Also recorded” adds a separate entry of the source.

Key:
[1] = Drinking test: test drink intake after one hour of exercising; format: in vivo, human; details: for blood free fatty acid levels changes over time: FIG. 4; for blood lactic acid levels changes over time: FIG. 5; for blood total ketone bodies levels changes over time: FIG. 13; for amount of oxidized carbohydrate changes over time / amount of oxidized lipids (fat) changes over time: calculated from VO2 and VCO2 by Frayn's equation; for amount of oxidized carbohydrate changes over time: FIG. 7; for amount of oxidized lipids (fat) changes over time: FIG. 8; for respiratory quotient changes over time: calculated from oxygen intake and carbon dioxide excretion, FIG. 6; for lipid oxidation, overall finding: recognized from FIGS. 4, 5, 7 and 8; for blood glucose levels (blood sugar level) changes over time: male subjects with suspected metabolic syndrome, drink in 500 ml water taken after 1 h exercise at about 50% VO2 max, blood sampled 10-120 min after intake, FIG. 1
Experimental: To male subjects with suspected metabolic syndrome and 85 cm or more of abdominal circumferences who lack in exercise, the following test was conducted. […] The subjects, who had family histories of cardiopathy or type 2 diabetes and/or had dyslipidemia, were eliminated from the test. Palatinose or high-fructose corn syrup was dissolved in 500 ml of water so that its intake per kg of body weight could be 1.0 g of the solid, and sucralose, a high intensity sweetener, was dissolved in 500 ml of water so that its intake per kg of body weight could be 1.33 mg of the solid that gives the degree of sweetness between the high-fructose corn syrup and palatinose solutions, to prepare three kinds of test drinks. For these three kinds of drinks, drinking tests were conducted, respectively and each test was conducted at intervals of ten days or longer. The high-fructose corn syrup is composed of glucose and fructose, the same constituent sugars as sucrose and palatinose, and its calorie per the solid is 4 kcal/g which is the same value as that of sucrose and palatinose.
The method of physical measurement for the subjects was based on ACSM guideline (American College of Sports Medicine, 2001). Respiratory gas was collected and analyzed by a respiratory gas automatic analyzer (Oxycon Alpha, manufactured by Mijnhardt) every 30 seconds during the test. Maximal oxygen uptake (VO2max) was calculated by increasing exercise loading gradually with a bicycle ergometer (818E, manufactured by Monark).
The tests were conducted as a double-blind crossover tests and dietary restriction was imposed on the subjects from two days before the tests. All subjects were instructed to abstain from alcohol, caffeine, green tea and high-intensity exercising 24 hours before the tests. Moreover, they recorded food intake two days before the first tests and repeated the same food intake before the second tests. This is for standardizing of the food intake before the tests and for minimizing the change of glycogen storage. All subjects took the same food as the dinner a day before all tests (725 kcal, 60% of the energy from carbohydrate, 30% from lipid and 10% from protein). After an overnight (10 hours to 12 hours) fast, the tests were conducted. During the fasting period, they were permitted to take water freely.
In order to avoid the effect of circadian rhythm, the tests were started at the same time. After the 15 minutes rest, the first venous blood sampling was conducted. The subjects exercised for an hour with loading of about 50% of VO2 max by a bicycle ergometer. After exercising, blood sampling was conducted and they took the test drinks for 5 minutes. Blood sampling was conducted at time points of 10, 20, 30, 45, 60, 75, 90, 105 and 120 minutes after the test drink was taken in. The collected blood samples were submitted for various biochemical measurements. After the drink intake, their heart rates were continuously measured with an electrocardiograph (Dyan Scope, manufactured by Fukuda Denshi).
On the assumption that oxidation of proteins during exercising can be ignored, oxidation of total carbohydrates and lipids was calculated from VO2 and VCO2 using Frayn's equation. The VO2 and VCO2 represent oxygen intake and carbon dioxide excretion in L/min, respectively. Respiratory quotient (RQ) was calculated from oxygen intake and carbon dioxide excretion. Calorie consumption rate was calculated from RQ and VO2 using Lusk's equation.

[2] = into 100 g water at 20° C.; cited from earlier work

| SMILES | blood insulin levels changes over time (insulin secretion) ([1]; drink intake after exercising, FIG. 2) | blood free fatty acid levels changes over time ([1]; drink intake after exercising) | blood lactic acid levels changes over time ([1]; drink intake after exercising) | blood neutral fat levels changes over time ([1]; drink intake after exercising, FIG. 9) | blood epinephrine levels changes over time ([1]; drink intake after exercising, FIG. 10) | blood nolepinephrine levels changes over time ([1]; drink intake after exercising, FIG. 11) | blood total ketone bodies levels changes over time ([1]; drink intake after exercising) | amount of oxidized carbohydrate changes over time ([1]; drink intake after exercising) | amount of oxidized lipids (fat) changes over time ([1]; drink intake after exercising) | respiratory quotient changes over time ([1]; drink intake after exercising) | lipid oxidation, overall finding ([1]; drink intake after exercising) | blood glucose levels (blood sugar level) changes over time [1] | solubility into 100 g water [2] | blood 3-OHBA levels changes over time ([1]; drink intake after exercising, FIG. 12) |
| --- | --- | --- | --- | --- | --- | --- | --- | --- | --- | --- | --- | --- | --- | --- |
| OC[C@H]1O[C@H](OC[C@H]2OC(O)(CO)[C@@H](O)[C@@H]2O)[C@H](O)[C@@H](O)[C@@H]1O (stereo partly shown) [palatinose, isomaltulose] | mild | between those in taking high-fructose corn syrup and in taking sucralose | between those in taking high-fructose corn syrup and in taking sucralose | no effect | no effect | no effect | dropped without their accumulation in blood; also recorded: inhibit accumulation of ketone bodies | between those of high-fructose corn syrup and sucralose | between those of high-fructose corn syrup and sucralose | between those in taking high-fructose corn syrup and in taking sucralose | rather difficult to prevent | rose slowly thereafter, surpassed that in the case of taking high-fructose corn syrup around 60 minutes thereafter, and continued maintaining a relatively high value |  |  |
| O.OC[C@H]1O[C@H](OC[C@H]2OC(O)(CO)[C@@H](O)[C@@H]2O)[C@H](O)[C@@H](O)[C@@H]1O (stereo partly shown) [Palatinose monohydrate] |  |  |  |  |  |  |  |  |  |  |  |  | 38.4 g |  |
| OC[C@H]1O[C@H](O[C@]2(CCl)O[C@H](CCl)[C@@H](O)[C@@H]2O)[C@H](O)[C@@H](O)[C@H]1Cl [sucralose, reference compound] |  | the higher values were maintained | no change |  |  |  | rose | lower values | higher values | ~0.7 | maintained | did not rise |  | rose |
